Measured values from BindingDB's records for doi:10.1016/j.ejmech.2019.04.053 (China Pharmaceutical University, 2019).
Each block holds one compound with its values, some of them ahead of it.

Assay: Inhibition of human TRKA expressed in human TF1 cells by CellTiter-Glo Luminescent assay

SMILES: COCCN1C[C@@H](NC(=O)Nc2c(C)c(-c3cnn(C)c3)nn2-c2ccccc2)[C@@H]2c3ccccc3CC[C@H]21
IC50: 0.59 nM

SMILES: Cc1c(OCC2CCN(C)CC2)nn(-c2ccccc2)c1NC(=O)N[C@H]1CN(CC(F)(F)F)[C@@H]2COc3ccccc3[C@H]12
IC50: 0.64 nM

SMILES: COCC[C@@H]1C[C@@H](NC(=O)Nc2c(C)c(-c3cnn(C)c3)nn2-c2ccccc2)[C@@H]2c3ccccc3C(F)(F)CN12
IC50: 0.64 nM

The remaining lines, values ahead:

IC50: < 100 nM
SMILES: COCC[C@@H]1C[C@@H](NC(=O)Nc2c(C)c(-c3cnc4c(c3)c(N=S(C)(C)=O)nn4C)nn2-c2ccccc2)[C@H](c2ccc(F)c(F)c2)N1

IC50: < 100 nM
SMILES: COCC[C@@H]1C[C@@H](NC(=O)Nc2c(C)c(-c3cnn(C)c3)nn2-c2ccccc2)[C@H](c2cnc(Cl)c(F)c2)N1
